Target: Dual specificity tyrosine-phosphorylation-regulated kinase 1A (Homo sapiens, UniProt Q13627)
Assay: HotSpot Technology Assay
Conditions: pH 7.5; 25 °C

IC50, 500 nM:
NC(=O)c1nc2ccc3ncnc(Nc4ccc5c(c4)OCO5)c3c2s1 [US9446044, 39]
COC(=O)c1nc2ccc3ncnc(Nc4ccc5c(c4)OCO5)c3c2s1 [US9446044, 84]
COc1ccc(Nc2ncnc3ccc4nc(C(=N)N(C)C)sc4c23)cc1 [US9446044, 28]

— BindingDB's records for patent US9446044 (DIAXONHIT, 2016)
